According to the supplement of paper PMC10307832:

Experiments:
Experiment in all cases: relative viability (nuclei count vs DMSO), 5 days (fraction); higher = more cells survive
ABC-1 = system: ABC-1
Procedure, shortened: (§1)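 Medians of duplicate plates are given as relative viability. That measure is the nuclei count in treated wells divided by the count in vehicle wells. Counts were taken on 4× images of lung cancer cell lines in 1536-well plates, 5 days after pin-tool dosing the day after seeding with one drug alone or a fixed anchor-drug dose plus five library-drug doses (not always all listed) in √10 steps.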

CAL-12T = system: CAL-12T
Procedure, shortened: as §1

COR-L 105 = system: COR-L 105
Procedure, shortened: as §1

ChaGo-K-1 = system: ChaGo-K-1
Procedure, shortened: as §1

EMC-BAC-2 = system: EMC-BAC-2
Procedure, shortened: as §1

EPLC-272H = system: EPLC-272H
Procedure, shortened: as §1

HCC-15 = system: HCC-15
Procedure, shortened: as §1

HCC-78 = system: HCC-78
Procedure, shortened: as §1

HOP-62 = system: HOP-62
Procedure, shortened: as §1

LXF-289 = system: LXF-289
Procedure, shortened: as §1

NCI-H1666 = system: NCI-H1666
Procedure, shortened: as §1

NCI-H1755 = system: NCI-H1755
Procedure, shortened: as §1

NCI-H1915 = system: NCI-H1915
Procedure, shortened: as §1

NCI-H1975 = system: NCI-H1975
Procedure, shortened: as §1

NCI-H1993 = system: NCI-H1993
Procedure, shortened: as §1

NCI-H2023 = system: NCI-H2023
Procedure, shortened: as §1

NCI-H2085 = system: NCI-H2085
Procedure, shortened: as §1

NCI-H2126 = system: NCI-H2126
Procedure, shortened: as §1

NCI-H3122 = system: NCI-H3122
Procedure, shortened: as §1

NCI-H322M = system: NCI-H322M
Procedure, shortened: as §1

NCI-H358 = system: NCI-H358
Procedure, shortened: as §1

NCI-H441 = system: NCI-H441
Procedure, shortened: as §1

UMC-11 = system: UMC-11
Procedure, shortened: as §1

Structure (SMILES): CC1(C)CCC(c2ccc(Cl)cc2)=C(CN2CCN(c3ccc(C(=O)NS(=O)(=O)c4ccc(N[C@H](CCN5CCOCC5)CSc5ccccc5)c(S(=O)(=O)C(F)(F)F)c4)cc3)CC2)C1 [Navitoclax] + CS(=O)(=O)N1CCN(Cc2cc3nc(-c4cccc5[nH]ncc45)nc(N4CCOCC4)c3s2)CC1 [Pictilisib] (partner 1 µM)
- relative viability (ABC-1; first compound 0.005 µM): 0.795
- relative viability (ABC-1; first compound 0.01581 µM): 1
- relative viability (ABC-1; first compound 0.05 µM): 0.686
- relative viability (ABC-1; first compound 0.1581 µM): 0.64
- relative viability (ABC-1; first compound 0.5 µM): 0.616
- relative viability (CAL-12T; first compound 0.005 µM): 0.549
- relative viability (CAL-12T; first compound 0.01581 µM): 0.419
- relative viability (CAL-12T; first compound 0.05 µM): 0.404
- relative viability (CAL-12T; first compound 0.1581 µM): 0.522
- relative viability (CAL-12T; first compound 0.5 µM): 0.393
- relative viability (COR-L 105; first compound 0.005 µM): 0.352
- relative viability (COR-L 105; first compound 0.01581 µM): 0.45
- relative viability (COR-L 105; first compound 0.05 µM): 0.41
- relative viability (COR-L 105; first compound 0.1581 µM): 0.368
- relative viability (COR-L 105; first compound 0.5 µM): 0.308
- relative viability (ChaGo-K-1; first compound 0.005 µM): 0.645
- relative viability (ChaGo-K-1; first compound 0.01581 µM): 0.799
- relative viability (ChaGo-K-1; first compound 0.05 µM): 0.648
- relative viability (ChaGo-K-1; first compound 0.1581 µM): 0.641
- relative viability (ChaGo-K-1; first compound 0.5 µM): 0.667
- relative viability (EMC-BAC-2; first compound 0.005 µM): 0.506
- relative viability (EMC-BAC-2; first compound 0.01581 µM): 0.646
- relative viability (EMC-BAC-2; first compound 0.05 µM): 0.565
- relative viability (EMC-BAC-2; first compound 0.1581 µM): 0.548
- relative viability (EMC-BAC-2; first compound 0.5 µM): 0.6
- relative viability (EPLC-272H; first compound 0.005 µM): 0.321
- relative viability (EPLC-272H; first compound 0.1581 µM): 0.325
- relative viability (EPLC-272H; first compound 0.5 µM): 0.306
- relative viability (HCC-15; first compound 0.005 µM): 0.733
- relative viability (HCC-15; first compound 0.01581 µM): 0.769
- relative viability (HCC-15; first compound 0.05 µM): 0.614
- relative viability (HCC-15; first compound 0.1581 µM): 0.726
- relative viability (HCC-15; first compound 0.5 µM): 0.667
- relative viability (HCC-78; first compound 0.005 µM): 0.184
- relative viability (HCC-78; first compound 0.01581 µM): 0.261
- relative viability (HCC-78; first compound 0.1581 µM): 0.232
- relative viability (HCC-78; first compound 0.5 µM): 0.205
- relative viability (HOP-62; first compound 0.005 µM): 0.803
- relative viability (HOP-62; first compound 0.01581 µM): 0.921
- relative viability (HOP-62; first compound 0.05 µM): 0.5
- relative viability (HOP-62; first compound 0.1581 µM): 0.769
- relative viability (HOP-62; first compound 0.5 µM): 1.17
- relative viability (LXF-289; first compound 0.005 µM): 0.821
- relative viability (LXF-289; first compound 0.01581 µM): 0.872
- relative viability (LXF-289; first compound 0.05 µM): 0.737
- relative viability (LXF-289; first compound 0.1581 µM): 0.799
- relative viability (LXF-289; first compound 0.5 µM): 0.768
- relative viability (NCI-H1666; first compound 0.005 µM): 0.562
- relative viability (NCI-H1666; first compound 0.01581 µM): 0.609
- relative viability (NCI-H1666; first compound 0.05 µM): 0.503
- relative viability (NCI-H1666; first compound 0.1581 µM): 0.394
- relative viability (NCI-H1666; first compound 0.5 µM): 0.475
- relative viability (NCI-H1755; first compound 0.005 µM): 0.425
- relative viability (NCI-H1755; first compound 0.01581 µM): 0.434
- relative viability (NCI-H1755; first compound 0.05 µM): 0.252
- relative viability (NCI-H1755; first compound 0.1581 µM): 0.406
- relative viability (NCI-H1755; first compound 0.5 µM): 0.352
- relative viability (NCI-H1915; first compound 0.005 µM): 0.893
- relative viability (NCI-H1915; first compound 0.01581 µM): 1.02
- relative viability (NCI-H1915; first compound 0.05 µM): 1.01
- relative viability (NCI-H1915; first compound 0.1581 µM): 0.933
- relative viability (NCI-H1915; first compound 0.5 µM): 0.902
- relative viability (NCI-H1975; first compound 0.005 µM): 0.295
- relative viability (NCI-H1975; first compound 0.01581 µM): 0.32
- relative viability (NCI-H1975; first compound 0.05 µM): 0.304
- relative viability (NCI-H1975; first compound 0.1581 µM): 0.287
- relative viability (NCI-H1975; first compound 0.5 µM): 0.235
- relative viability (NCI-H1993; first compound 0.005 µM): 0.808
- relative viability (NCI-H1993; first compound 0.01581 µM): 0.853
- relative viability (NCI-H1993; first compound 0.05 µM): 0.803
- relative viability (NCI-H1993; first compound 0.1581 µM): 0.792
- relative viability (NCI-H1993; first compound 0.5 µM): 0.925
- relative viability (NCI-H2023; first compound 0.005 µM): 0.282
- relative viability (NCI-H2023; first compound 0.01581 µM): 0.248
- relative viability (NCI-H2023; first compound 0.05 µM): 0.22
- relative viability (NCI-H2023; first compound 0.1581 µM): 0.263
- relative viability (NCI-H2023; first compound 0.5 µM): 0.269
- relative viability (NCI-H2085; first compound 0.005 µM): 0.449
- relative viability (NCI-H2085; first compound 0.01581 µM): 0.49
- relative viability (NCI-H2085; first compound 0.05 µM): 0.475
- relative viability (NCI-H2085; first compound 0.1581 µM): 0.507
- relative viability (NCI-H2085; first compound 0.5 µM): 0.596
- relative viability (NCI-H2126; first compound 0.005 µM): 0.529
- relative viability (NCI-H2126; first compound 0.01581 µM): 0.507
- relative viability (NCI-H2126; first compound 0.05 µM): 0.493
- relative viability (NCI-H2126; first compound 0.1581 µM): 0.49
- relative viability (NCI-H2126; first compound 0.5 µM): 0.451
- relative viability (NCI-H3122; first compound 0.005 µM): 0.592
- relative viability (NCI-H3122; first compound 0.01581 µM): 0.585
- relative viability (NCI-H3122; first compound 0.05 µM): 0.537
- relative viability (NCI-H3122; first compound 0.1581 µM): 0.601
- relative viability (NCI-H3122; first compound 0.5 µM): 0.55
- relative viability (NCI-H322M; first compound 0.005 µM): 0.485
- relative viability (NCI-H322M; first compound 0.01581 µM): 0.526
- relative viability (NCI-H322M; first compound 0.05 µM): 0.565
- relative viability (NCI-H322M; first compound 0.1581 µM): 0.516
- relative viability (NCI-H322M; first compound 0.5 µM): 0.562
- relative viability (NCI-H358; first compound 0.005 µM): 0.347
- relative viability (NCI-H358; first compound 0.01581 µM): 0.352
- relative viability (NCI-H358; first compound 0.05 µM): 0.307
- relative viability (NCI-H358; first compound 0.1581 µM): 0.379
- relative viability (NCI-H358; first compound 0.5 µM): 0.336
- relative viability (NCI-H441; first compound 0.005 µM): 0.441
- relative viability (NCI-H441; first compound 0.01581 µM): 0.606
- relative viability (NCI-H441; first compound 0.05 µM): 0.433
- relative viability (NCI-H441; first compound 0.1581 µM): 0.529
- relative viability (NCI-H441; first compound 0.5 µM): 0.458
- relative viability (UMC-11; first compound 0.005 µM): 0.743
- relative viability (UMC-11; first compound 0.01581 µM): 0.809
- relative viability (UMC-11; first compound 0.1581 µM): 0.741
- relative viability (UMC-11; first compound 0.5 µM): 0.516
